The text below walks through data of patent publication US20080311231A1, “Broad Spectrum Non-Traditional Preservative System” (priority 2005, published 2008).

Holding throughout (type): cell-based
The test system of assay [1] is S. aureus. Put plainly: Preservative activity in cream base, Method A (Example 3). To be noted: 10^5 cfu inoculum, room temperature, 24 hours. Here is the method: (§1) Method of evaluation—Method A: 500 μl or 250 μl of each of the following preservatives was added to 49.5/49.75 gm of the cream base to obtain the desired concentrations for testing as in Table 3, and mixed well. 1.0 gm of this base+preservative formulation was dispensed into several culture tubes and each tube was inoculated with 10 μl of culture containing 10^5 cfu (colony forming units) of test organism. The tubes were incubated at room temperature. After 24 hours the tubes were removed and 9 ml of drug inactivating medium was added and mixed. After making another dilution (1:10) with drug inactivating medium, a 0.5 ml aliquot was subcultured on to a TSA plate. Colony counts were measured after 24 hours incubation at 37° C.
(§2) Result: Preservative activity of various creams utilizing a concentration of test organism of 10^5 cfu/gm and incubation at room temperature is shown in Table 4.

The subject of assay [2] is C. albicans. Described as above. The conditions noted are these: 10^5 cfu inoculum, room temperature, 24 hours. Here is the method: as §1, §2
In assay [3] the test system is E. coli. The assay is described as above. The conditions noted are these: 10^5 cfu inoculum, room temperature, 24 hours. Here is the method: as §1, §2
Assay [4] concerns C. albicans. Put plainly: Method C, oil/water base incubated at 30° C. (Examples 7 and 8). To be noted: 10^7 cfu/gm, 24 hours. Here is the method:
Evaluation of the effect of various preservative compositions incorporated in an oil/water base against C. albicans (yeast) incubated at 30° C. Yeast and fungi grow optimally at 30° C. and therefore the efficacy of the preservative was evaluated at this temperature.
Method of evaluation: Method C: Same as Method B except that incubation was at 30° C. and subculturing is done on Sabouraud agar.
The following preservatives at 1.0% and 0.5% concentrations were added to the cream. C. albicais at 10^7 cfu/gm base was added to the base and incubated at 30° C. for 24 hours.
Efficacy of preservatives incorporated in the oil/water base and inoculated with the yeast C. albicans and fungus Aspergillus niger.
The cream base and the cream containing the preservatives were inoculated with 10^7 cfu of C. albicans/gm and 105 cfu of Aspergillus niger/gm; and incubated at 30° C. for 24 hours and 48 hours.
Method of Evaluation: Testing was done using Method C.

In assay [5] the test system is P. aeruginosa. Put plainly: Efficacy of preservatives against higher concentrations of P. aeruginosa (Example 4). The conditions noted are these: 10^7 cfu per gm cream, 37° C. Here is the method: as §1
(§3) Evaluation of the synergistic activity of octanediol and AHA combinations against higher concentrations of P. aeruginosa. Since 0.5% Octanediol kills 100% of P. aeruginosa at a concentration of 10^5 cfu/gm, the test was repeated with this organism at 10^7 cfu/gm.
Method of evaluation: Same as described in Method A except a higher inoculum was used. A 100 μl inoculum containing 10^7 cfu of P. aeruginosa was added to each 1 gm of cream and incubated at 37° C.

Assay [6] deals with S. aureus. The experiment in a line: Method B, Symrise oil/water cream base (Example 5). To be noted: 0.2% w/w in Symrise oil/water cream; 10^7 CFU/gm; 37° C., 24 hour. Here is the method:
(§4) Activity of lower concentration of Symdiol™ (0.2% w/w) with organic acids was measured. The cream base used in this study was supplied by Symrise Corporation. This base is an oil/water base.
(§5) Method of evaluation: Method B was used for this test. Method B: Same as described in Method A except a higher inoculum was used. A 100 μL inoculum containing 10^7 CFU of test organism was added to each 1 gm of cream and incubated at 37° C. Microbial growth measured as CFU was counted after 24 hour incubation at 37° C.

Assay [7] relates to E. coli. The experiment in a line: Method B, Symrise oil/water cream base (Example 5). To be noted: 0.2% w/w in Symrise oil/water cream; 10^7 CFU/gm; 37° C., 24 hour. Here is the method:
as §4, §5

The subject of assay [8] is P. aeruginosa. Put plainly: Method B, Symrise oil/water cream base (Example 5). To be noted: 0.2% w/w in Symrise oil/water cream; 10^7 CFU/gm; 37° C., 24 hour. Here is the method:
as §4, §5

In assay [9] the test system is C. albicans. Put plainly: Method B, Symrise oil/water cream base (Examples 5 and 6). The conditions noted are these: for Colony counts (CFU/gm) C. albicans: 0.2% w/w in Symrise oil/water cream, 10^7 CFU/gm. As to the method:
Activity of lower concentration of Symdiol™ (0.2% w/w) with organic acids was measured. The cream base used in this study was supplied by Symrise Corporation. This base is an oil/water base. […] Method of evaluation: Method B was used for this test. Method B: Same as described in Method A except a higher inoculum was used. […] Microbial growth measured as CFU was counted after 24 hour incubation at 37° C. The cream base used in this study was supplied by Symrise Corporation. This base is an oil/water base. […] Method of evaluation: Method B was used for this test with C. albicans as test organism.

In assay [10] the test system is P. aeruginosa. The experiment in a line: Preservative activity in cream, Method A inoculum (text of Example 4). To be noted: 0.5% Octanediol; organism at 10^5 cfu/gm (so in the source). Here is the method: as §1, §3
Where [11] appears, read: printed as 20% (single ingredient).

Each structure is given as a SMILES string.

`CC(O)C(=O)O` (stereo not drawn) [Lactic acid]: the “Colony counts (CFU)/gm S. aureus” value in assay [1] (0.2% w/w in cream) is 3.0 × 10^3 CFU/gm; in assay [6], 6.0 × 10^4 CFU/gm. Besides, the “Colony counts (CFU/gm) C. albicans” value in assay [2] (0.2% w/w in cream) was 1.5 × 10^4 CFU/gm; in assay [9] (37° C., 24 hour), 2.0 × 10^6 CFU/gm; in [9] (Table 7, Method B) it was 2.0 × 10^6 CFU/gm. Besides, the “Colony counts (CFU)/gm E. coli” value in assay [3] (0.2% w/w in cream) was 2.3 × 10^4 CFU/gm; in [7] it was 1.2 × 10^6 CFU/gm. Also, the “C. albicans (CFU/gm cream)” value in assay [4] (0.12% (single ingredient)) is recorded as 4.2 × 10^6 CFU/gm cream; in [4] (setting [11]), 5 × 10^6 CFU/gm cream. For the same compound, the “Colony counts (CFU/gm) P. aeruginosa” value in assay [5] (0.2% w/w in cream) and in assay [8] was 2.0 × 10^6 CFU/gm each time.
As for `O=C(O)CC(O)(CC(=O)O)C(=O)O` [Citric acid], the “Colony counts (CFU)/gm S. aureus” value in assay [1] (0.2% w/w in cream) is recorded as 5.0 × 10^4 CFU/gm; in assay [6] it was 2.0 × 10^4 CFU/gm. In addition, the “Colony counts (CFU/gm) C. albicans” value is 1.0 × 10^5 CFU/gm in assay [2] (0.2% w/w in cream); 2.0 × 10^6 CFU/gm in assay [9] (37° C., 24 hour); 2.0 × 10^6 CFU/gm in assay [9] (Table 7, Method B). In addition, the “Colony counts (CFU)/gm E. coli” value is recorded as 7.3 × 10^4 CFU/gm in assay [3] (0.2% w/w in cream) and 2.0 × 10^6 CFU/gm in assay [7]. Besides, the “C. albicans (CFU/gm cream)” value in [4] (setting [11]) is recorded as 2.5 × 10^6 CFU/gm cream. The “Colony counts (CFU/gm) P. aeruginosa” value in [5] (0.2% w/w in cream) is 2.5 × 10^6 CFU/gm; in assay [8], 1.0 × 10^6 CFU/gm. Besides, the “activity of the combination against C. albicans in words (conclusion of Example 6)” value in assay [9] (with a lower concentration of octanediol (0.2% w/w)) is “enhanced activity”.
Consider `CCCCCCC(O)CO` (stereo not drawn), for which the “Colony counts (CFU)/gm S. aureus” value is given as 4.0 × 10^4 CFU/gm in assay [1] (0.3% w/w in cream) and 1.5 × 10^3 CFU/gm in [1] (0.5% w/w in cream). For the same compound, the “Colony counts (CFU/gm) C. albicans” value is on record as 2.0 × 10^5 CFU/gm in [2] (0.3% w/w in cream); 5.2 × 10^2 CFU/gm in assay [2] (0.5% w/w in cream); 1.0 × 10^5 CFU/gm in [9] (Table 7, Method B). The entries for the “Colony counts (CFU)/gm E. coli” value in [3] (0.3% w/w in cream) and in [3] (0.5% w/w in cream) were 5.4 × 10^4 CFU/gm and 0 CFU/gm, respectively. The results for the “C. albicans (CFU/gm cream)” value in [4] (printed as 30% (single ingredient)) and in [4] (printed as 50% (single ingredient)) were 1.4 × 10^5 CFU/gm cream and 0 CFU/gm cream, respectively. In assay [5] (0.5% w/w in cream), the “Colony counts (CFU/gm) P. aeruginosa” value is recorded as 1.6 × 10^3 CFU/gm. For the same compound, the “kills P. aeruginosa” value in assay [10] came to 100%.
